In US20200239530A1, “COMPOUNDS AND METHODS OF MODULATING PROTEIN DEGRADATION” (Vividion Therapeutics, Inc., priority 2017, published 2020):

Tests used:
[1] = target: T1, FAM120A Constitutive coactivator of PPAR-gamma-like protei (Homo sapiens, UniProt Q9NZB2); test: Cysteine liganding, probe competition; type: binding
T1 construct: 200 μL of lysate containing 5 mg/ml proteome was treated with 2 μL of 100× compound stock; endogenous in cells
T1 sequence (Q9NZB2 1-1118): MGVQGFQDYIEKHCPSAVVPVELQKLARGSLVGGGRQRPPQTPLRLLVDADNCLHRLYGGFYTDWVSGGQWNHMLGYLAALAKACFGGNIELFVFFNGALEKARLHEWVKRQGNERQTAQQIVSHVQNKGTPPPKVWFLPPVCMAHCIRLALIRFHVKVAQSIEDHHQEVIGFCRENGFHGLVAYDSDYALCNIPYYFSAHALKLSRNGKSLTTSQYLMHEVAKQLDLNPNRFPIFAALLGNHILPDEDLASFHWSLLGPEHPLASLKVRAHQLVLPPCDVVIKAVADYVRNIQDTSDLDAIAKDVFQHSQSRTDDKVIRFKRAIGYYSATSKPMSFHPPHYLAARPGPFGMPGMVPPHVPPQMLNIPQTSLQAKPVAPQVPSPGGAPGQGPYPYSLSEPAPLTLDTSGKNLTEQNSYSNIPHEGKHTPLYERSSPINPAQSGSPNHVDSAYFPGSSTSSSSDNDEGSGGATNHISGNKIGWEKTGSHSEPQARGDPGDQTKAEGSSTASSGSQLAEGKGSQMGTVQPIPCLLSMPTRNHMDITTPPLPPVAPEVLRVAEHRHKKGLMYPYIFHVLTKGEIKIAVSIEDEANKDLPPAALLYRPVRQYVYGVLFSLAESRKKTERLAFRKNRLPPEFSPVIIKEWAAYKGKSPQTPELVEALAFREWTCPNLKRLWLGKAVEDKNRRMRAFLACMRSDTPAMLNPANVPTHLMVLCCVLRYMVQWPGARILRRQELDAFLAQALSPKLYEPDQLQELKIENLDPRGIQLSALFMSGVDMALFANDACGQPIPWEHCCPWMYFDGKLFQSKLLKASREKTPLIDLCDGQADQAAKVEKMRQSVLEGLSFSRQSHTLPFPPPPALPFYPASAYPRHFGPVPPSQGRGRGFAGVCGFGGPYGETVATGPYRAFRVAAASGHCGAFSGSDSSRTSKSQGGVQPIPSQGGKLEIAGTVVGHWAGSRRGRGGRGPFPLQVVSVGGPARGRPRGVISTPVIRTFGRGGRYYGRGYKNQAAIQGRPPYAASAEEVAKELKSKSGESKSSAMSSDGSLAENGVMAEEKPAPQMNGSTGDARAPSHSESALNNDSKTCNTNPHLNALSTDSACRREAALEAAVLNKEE
Summary of the method: (§1)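 Read-out is loss of desthiobiotin iodoacetamide labelling at cysteines, measured on streptavidin-enriched tryptic peptides. Compound preincubation ran 1 hr at 25° C in PBS lysate holding 5 mg/ml proteome before the probe was added.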

[2] = target: T2, DECR2 Peroxisomal 2,4-dienoyl-CoA reductase (Homo sapiens, UniProt Q9NUI1); test: Cysteine liganding, probe competition; type: binding; settings: for Liganded: DECR2 Res# 120, uniprot Q9NUI1
T2 construct: 200 μL of lysate containing 5 mg/ml proteome was treated with 2 μL of 100× compound stock; endogenous in cells
T2 sequence (Q9NUI1 1-292): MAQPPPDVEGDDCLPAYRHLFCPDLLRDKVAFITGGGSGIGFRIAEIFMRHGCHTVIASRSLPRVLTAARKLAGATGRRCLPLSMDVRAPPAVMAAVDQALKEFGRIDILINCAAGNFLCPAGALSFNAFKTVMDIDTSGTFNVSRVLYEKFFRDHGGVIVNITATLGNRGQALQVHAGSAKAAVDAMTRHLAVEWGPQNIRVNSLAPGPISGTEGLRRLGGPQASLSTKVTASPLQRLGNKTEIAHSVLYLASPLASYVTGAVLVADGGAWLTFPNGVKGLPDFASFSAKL
Summary of the method: as §1

## O=C(CCl)Nc1cc(C(F)(F)F)cc(C(F)(F)F)c1 [KBO3]
[1]; uniprot Q9NZB2
  100 ave: −8.925
  500 Max: 55.62
  500 ave: 55.62
[1]; uniprot Q9NZB2, in % (unit assumed)
  100 Max: 13.09
[2]
  Liganded: YES
[2]; uniprot Q9NUI1
  100 Max: 66.9
  100 ave: 66.9
  500 Max: 85
  500 ave: 85

## COc1ccc2c(c1)CCCN2C(=O)CCl [KB02]
[1]; FAM120A Res# 919, uniprot Q9NZB2
  Liganded: YES
[2]
  Liganded: YES
